Test results published in ChEMBL document CHEMBL4138232, “O2-(2,4-dinitrophenyl)diazeniumdiolates derivatives: Design, synthesis, cytotoxic evaluation and reversing MDR in MCF-7/ADR cells” (Eur J Med Chem, 2018).

Experiments:
HCT-116 [1] = test: Cytotoxicity against human HCT116 cells overexpressing GST-Pi assessed as inhibition of cell viability at 10 uM after 48 hrs by MTT assay relative to control; assay type: functional; conditions: HCT-116, 48 h
MDA-MB-231 = test: Antiproliferative activity against human MDA-MB-231 cells after 48 hrs by MTT assay relative to control; assay type: functional, cell-based; conditions: MDA-MB-231, 48 h
HCT-116 [2] = test: Antiproliferative activity against human HCT116 cells after 48 hrs by MTT assay relative to control; assay type: functional, cell-based; conditions: HCT-116, 48 h
A549 = test: Antiproliferative activity against human A549 cells after 48 hrs by MTT assay relative to control; assay type: functional, cell-based; conditions: A549, 48 h
U2OS = test: Antiproliferative activity against human U2OS cells after 48 hrs by MTT assay relative to control; assay type: functional, cell-based
MCF-10A = test: Antiproliferative activity against human MCF10A cells after 48 hrs by MTT assay relative to control; assay type: cell-based
[3] = Selectivity ratio of IC50 for human MCF10A cells to IC50 for human MDA-MB-231 cells; assay type: toxicity; conditions: MCF10A cells versus MDA-MB-231 cells, read-out: Ratio IC50
[4] = Selectivity ratio of IC50 for human HCT116 cells to IC50 for human MDA-MB-231 cells; assay type: functional
[5] = Selectivity ratio of IC50 for human A549 cells to IC50 for human MDA-MB-231 cells; assay type: functional
[6] = Selectivity ratio of IC50 for human U2OS cells to IC50 for human MDA-MB-231 cells; assay type: functional
Homo sapiens = species on record: Homo sapiens; test: Inhibition of MDR in human MCF7/ADR cells assessed as potentiation of adriamycin-induced antiproliferative activity by measuring fold reduction in adriamycin IC50 at 10 uM after 48 hrs by MTT assay; assay type: cell-based
[7] = target: T1, Glutathione S-transferase P (Homo sapiens, UniProt P09211); test: Prodrug activation in human HCT116 cells assessed as GST-Pi-mediated NO release at 5 uM after 24 hrs in presence of NO scavenger carboxy-PTIO by nitrate reductase assay; assay type: cell-based
T1 sequence (P09211 whole entry): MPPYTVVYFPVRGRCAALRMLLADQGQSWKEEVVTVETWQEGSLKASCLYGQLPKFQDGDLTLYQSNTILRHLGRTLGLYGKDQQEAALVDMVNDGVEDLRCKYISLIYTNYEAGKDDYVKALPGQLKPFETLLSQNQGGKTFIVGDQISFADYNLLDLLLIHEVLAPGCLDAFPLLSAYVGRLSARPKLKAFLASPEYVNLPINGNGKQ

[8] = target: T1, Glutathione S-transferase P; test: Prodrug activation in human HCT116 cells assessed as GST-Pi-mediated NO release at 5 uM after 24 hrs in presence of GST-Pi inhibitor etacrynic acid by nitrate reductase assay; assay type: cell-based
[9] = Cytotoxicity against ADR-sensitive human MCF7 cells assessed as inhibition of cell viability at 10 uM after 48 hrs by MTT assay relative to control; assay type: cell-based; conditions: read-out: INH
MCF7 = test: Cytotoxicity against ADR-sensitive human MCF7 cells assessed as inhibition of cell viability after 48 hrs by MTT assay; assay type: cell-based; conditions: MCF7, 48 h
[10] = target: T1, Glutathione S-transferase P; test: Prodrug activation in human HCT116 cells assessed as GST-Pi-mediated NO release at 5 uM after 24 hrs by nitrate reductase assay; assay type: cell-based

IC50 (MDA-MB-231) | IC50 (HCT-116 [2]) | IC50 (A549) | IC50 (U2OS) | Drug metabolism [7] | Drug metabolism [8] | Drug metabolism [10] | SMILES | inhibition at 10 µM (HCT-116 [1]) | IC50 (MCF-10A) | selectivity ratio [3] | Ratio IC50 [4] | Ratio IC50 [5] | Ratio IC50 [6] | fold change (FC) (Homo sapiens) | cytotoxicity at 48 h, 10 µM [9] | IC50 (MCF7)
 |  |  |  |  |  |  | CCCCOc1ccc(/C=C/C(=O)c2cccc(Oc3cc(O/N=[N+](\[O-])N4CCCCC4)c([N+](=O)[O-])cc3[N+](=O)[O-])c2)cc1OC | 58.6% |  |  |  |  |  |  |  | 
 |  |  |  |  |  |  | CCCCCCOc1ccc(/C=C/C(=O)c2cccc(Oc3cc(O/N=[N+](\[O-])N4CCOCC4)c([N+](=O)[O-])cc3[N+](=O)[O-])c2)cc1OC | 52.4% |  |  |  |  |  |  |  | 
1.18 µM | 2.92 µM | 1.96 µM | 5.17 µM | Metabolite_Notdetected | Metabolite_Notdetected |  | COc1cc(/C=C/C(=O)c2cccc(Oc3cc(O/N=[N+](\[O-])N4CCOCC4)c([N+](=O)[O-])cc3[N+](=O)[O-])c2)cc(OC)c1OC | 77.6% | 13.8 µM | 11.7 | 2.4 | 1.7 | 4.4 | 72.3 | 21.5% | 20.9 µM
2.03 µM | 4.08 µM | 3.15 µM | 5.26 µM | Metabolite_Notdetected | Metabolite_Notdetected |  | Cc1ccc(/C=C/C(=O)c2cccc(Oc3cc(O/N=[N+](\[O-])N4CCOCC4)c([N+](=O)[O-])cc3[N+](=O)[O-])c2)cc1 | 61.2% | 44.7 µM | 22 | 2 | 1.5 | 2.6 | 46.9 | 21.3% | 18.8 µM
 |  |  |  |  |  |  | CCCCCOc1ccc(C2CC(c3cccc(Oc4cc(O/N=[N+](\[O-])N5CCCCC5)c([N+](=O)[O-])cc4[N+](=O)[O-])c3)=NN2C(C)=O)cc1OC (stereo not drawn) | 63.7% |  |  |  |  |  |  |  | 
 |  |  |  |  |  |  | CN(C)c1ccc(/C=C/C(=O)c2cccc(Oc3cc(O/N=[N+](\[O-])N4CCOCC4)c([N+](=O)[O-])cc3[N+](=O)[O-])c2)cc1 | 57.1% |  |  |  |  |  |  |  | 
 |  |  |  |  |  |  | CCCCCOc1ccc(/C=C/C(=O)c2cccc(Oc3cc(O/N=[N+](\[O-])N4CCOCC4)c([N+](=O)[O-])cc3[N+](=O)[O-])c2)cc1OC | 66.6% |  |  |  |  |  |  |  | 
 |  |  |  |  |  |  | CCCCCOc1ccc(C2CC(c3cccc(Oc4cc(O/N=[N+](\[O-])N5CCOCC5)c([N+](=O)[O-])cc4[N+](=O)[O-])c3)=NN2C(C)=O)cc1OC (stereo not drawn) | 68.3% |  |  |  |  |  | 16.8 | 21.7% | 35.8 µM
1.37 µM | 1.43 µM | 1.02 µM | 6.74 µM | Metabolite_Notdetected | Metabolite_Notdetected | Metabolite_Detected | COc1ccc(C2CC(c3cccc(Oc4cc(O/N=[N+](\[O-])N5CCCCC5)c([N+](=O)[O-])cc4[N+](=O)[O-])c3)=NN2C(C)=O)cc1OC (stereo not drawn) | 80.9% | 18.7 µM | 13.6 | 1 | 0.7 | 4.9 | 71.7 | 17.2% | 25.2 µM
3.42 µM | 5.29 µM | 4.65 µM | 4.65 µM |  |  |  | COc1cc(/C=C/C(=O)c2cccc(Oc3cc(O/N=[N+](\[O-])N4CCCCC4)c([N+](=O)[O-])cc3[N+](=O)[O-])c2)cc(OC)c1OC | 63.7% | 80.8 µM | 23.6 | 1.5 | 1.4 | 1.4 | 42.5 | 19.2% | 30.4 µM
6.1 µM | 4.59 µM | 5.99 µM | 5.77 µM | Metabolite_Notdetected | Metabolite_Notdetected | Metabolite_Detected | COc1ccc(/C=C/C(=O)c2cccc(Oc3cc(O/N=[N+](\[O-])N4CCOCC4)c([N+](=O)[O-])cc3[N+](=O)[O-])c2)cc1OC | 75.6% | 62.1 µM | 10.2 | 0.7 | 1 | 0.9 | 66.3 | 18% | 28.3 µM
3.74 µM | 6.31 µM | 5.66 µM | 5.22 µM |  |  |  | Cc1ccc(/C=C/C(=O)c2cccc(Oc3cc(O/N=[N+](\[O-])N4CCCCC4)c([N+](=O)[O-])cc3[N+](=O)[O-])c2)cc1 | 62.2% | 128 µM | 34.2 | 1.7 | 1.5 | 1.4 | 51.2 | 14.2% | 59.1 µM
11.1 µM | 8.88 µM | 9.63 µM | 11.4 µM |  |  |  | COc1ccc(/C=C/C(=O)c2cccc(Oc3cc(O/N=[N+](\[O-])N4CCCCC4)c([N+](=O)[O-])cc3[N+](=O)[O-])c2)cc1OC | 66.1% | 95.9 µM | 8.6 | 0.8 | 0.9 | 1 | 10.2 | 8.24% | 32.7 µM
 |  |  |  |  |  |  | COc1ccc(CCN(C)CCCC(C#N)(c2ccc(OC)c(OC)c2)C(C)C)cc1OC (stereo not drawn) |  |  |  |  |  |  | 29.8 |  | 
 |  |  |  |  |  |  | CN(C)c1ccc(/C=C/C(=O)c2cccc(Oc3cc(O/N=[N+](\[O-])N4CCCCC4)c([N+](=O)[O-])cc3[N+](=O)[O-])c2)cc1 | 65.9% |  |  |  |  |  |  |  | 
 |  |  |  |  |  |  | CCCCCCOc1ccc(C2CC(c3cccc(Oc4cc(O/N=[N+](\[O-])N5CCCCC5)c([N+](=O)[O-])cc4[N+](=O)[O-])c3)=NN2C(C)=O)cc1OC (stereo not drawn) | 48% |  |  |  |  |  |  |  | 
 |  |  |  |  |  |  | CCCCCOc1ccc(/C=C/C(=O)c2cccc(Oc3cc(O/N=[N+](\[O-])N4CCCCC4)c([N+](=O)[O-])cc3[N+](=O)[O-])c2)cc1OC | 33% |  |  |  |  |  |  |  | 
 |  |  |  |  |  |  | CCCCCCOc1ccc(C2CC(c3cccc(Oc4cc(O/N=[N+](\[O-])N5CCOCC5)c([N+](=O)[O-])cc4[N+](=O)[O-])c3)=NN2C(C)=O)cc1OC (stereo not drawn) | 66.7% |  |  |  |  |  |  |  | 
5.29 µM | 3.43 µM | 7.66 µM | 6.3 µM | Metabolite_Notdetected | Metabolite_Notdetected | Metabolite_Detected | CC(=O)N1N=C(c2cccc(Oc3cc(O/N=[N+](\[O-])N4CCCCC4)c([N+](=O)[O-])cc3[N+](=O)[O-])c2)CC1c1ccc(N(C)C)cc1 (stereo not drawn) | 81.3% | 95.3 µM | 18 | 0.6 | 1.4 | 1.2 | 26.6 | 13.4% | 20.2 µM
5.34 µM | 4.91 µM | 5.9 µM | 5.19 µM |  |  |  | COc1ccc(/C=C/C(=O)c2cccc(Oc3cc(O/N=[N+](\[O-])N4CCOCC4)c([N+](=O)[O-])cc3[N+](=O)[O-])c2)cc1 | 68.7% | 16.6 µM | 3.1 | 0.9 | 1.1 | 1 | 64.2 | 5.4% | 29.9 µM
 |  |  |  |  |  |  | CCCCCCOc1ccc(/C=C/C(=O)c2cccc(Oc3cc(O/N=[N+](\[O-])N4CCCCC4)c([N+](=O)[O-])cc3[N+](=O)[O-])c2)cc1OC | 16.1% |  |  |  |  |  |  |  | 
6.15 µM | 5.37 µM | 8.58 µM | 9.78 µM |  |  |  | COc1ccc(/C=C/C(=O)c2cccc(Oc3cc(O/N=[N+](\[O-])N4CCCCC4)c([N+](=O)[O-])cc3[N+](=O)[O-])c2)cc1 | 69.5% | 113 µM | 18.3 | 0.9 | 1.4 | 1.6 | 1.53 | 11.2% | 71 µM
 |  |  |  |  |  |  | CCCCOc1ccc(/C=C/C(=O)c2cccc(Oc3cc(O/N=[N+](\[O-])N4CCOCC4)c([N+](=O)[O-])cc3[N+](=O)[O-])c2)cc1OC | 70.2% |  |  |  |  |  |  |  | 
3.27 µM | 7.78 µM | 6.94 µM | 3.55 µM |  |  |  | CCCCOc1ccc(C2CC(c3cccc(Oc4cc(O/N=[N+](\[O-])N5CCCCC5)c([N+](=O)[O-])cc4[N+](=O)[O-])c3)=NN2C(C)=O)cc1OC (stereo not drawn) | 72.9% | 79.7 µM | 24.4 | 2.4 | 2.1 | 1.1 |  |  | 

SMILES | IC50 (MDA-MB-231) | IC50 (HCT-116 [2]) | IC50 (A549) | IC50 (U2OS) | Drug metabolism [7] | Drug metabolism [8] | Drug metabolism [10] | inhibition at 10 µM (HCT-116 [1]) | IC50 (MCF-10A) | selectivity ratio [3] | Ratio IC50 [4] | Ratio IC50 [5] | Ratio IC50 [6] | fold change (FC) (Homo sapiens) | cytotoxicity at 48 h, 10 µM [9] | IC50 (MCF7)
CCOC(=O)N1CCN(/[N+]([O-])=N/Oc2ccc([N+](=O)[O-])cc2[N+](=O)[O-])CC1 | 5.75 µM | 4.86 µM | 6.53 µM | 6.27 µM | Metabolite_Notdetected | Metabolite_Notdetected | Metabolite_Detected | 78% | 4.91 µM |  |  |  |  |  |  | 
